In ChEMBL document CHEMBL5331069, “Potential of glycyrrhizic and glycyrrhetinic acids against influenza type A and B viruses: A perspective to develop new anti-influenza compounds and drug delivery systems” (Eur J Med Chem, 2023):
In brackets after ≈: the same amount, converted by molar mass.

Key:
[1] = Cytotoxicity against MDCK cells assessed as reduction in cell viability incubated for 48 hrs; type: toxicity, cell-based, Canis lupus familiaris; conditions: dog
[2] = system: Influenza A virus; assay: Antiviral activity against Influenza A virus A/Aichi/2/68(H3N2) infected in MDCK cells assessed as inhibition of virus-induced cytopathicity; type: functional, organism-based
[3] = system: Influenza A virus; assay: Antiviral activity against influenza A virus A/Pert/16/09(H3N2) infected in MDCK cells assessed as reduction in viral titer by agglutination assay; type: functional, organism-based
[4] = system: Influenza A virus; assay: Antiviral activity against influenza A virus A/California/07/09(H1N1)pdm09 infected in MDCK cells assessed as reduction in viral titer by agglutination assay; type: functional, organism-based; conditions: A/California/07/09(H1N1)pdm09, MDCK
[5] = Cytotoxicity against MDCK cells assessed as reduction in cell viability incubated for 72 hrs by MTT assay; type: toxicity, cell-based, Canis lupus familiaris; conditions: dog
[6] = system: Influenza A virus; assay: Antiviral activity against influenza A virus A/NIBRG/14/H5N1 infected in MDCK cells assessed as reduction in viral titer by agglutination assay; type: functional, organism-based; conditions: A/NIBRG/14/H5N1, MDCK
[7] = system: Influenza B virus; assay: Antiviral activity against influenza B virus B/Brisben/60/08 infected in MDCK cells assessed as reduction in viral titer by agglutination assay; type: functional, organism-based; conditions: B/Brisben/60/08, MDCK
[8] = Water solubility of the compound; type: physicochemical
[9] = Oral bioavailability in rat; type: ADME, organism-based; conditions: in vivo
[10] = Water solubility of the compound by shake flask method; type: physicochemical; conditions: buffer
[11] = system: Influenza A virus; assay: Antiviral activity against influenza A virus H1N1/pdm09 infected in MDCK cells assessed as reduction in viral titer preincubated with compound for 1 hr followed by virus infection incubated for 48 hrs followed by addition of chicken erythrocytes measured after 40 mins by hemagglutination assay; type: functional, organism-based
[12] = Cytotoxicity against MDCK cells assessed as reduction in cell viability incubated for 48 hrs by MTT assay; type: toxicity, cell-based, Canis lupus familiaris; conditions: dog
[13] = system: Influenza A virus; assay: Antiviral activity against influenza A virus A/WSN/33(H1N1) infected in BALB/c mouse assessed as log reduction in viral load in lungs at 5 mg/kg administered intranasally for 5 days; type: functional; conditions: route nas, time 5 day
[14] = system: Influenza A virus; assay: Antiviral activity against Influenza A virus A/WSN/33(H1N1) infected in MDCK cells assessed as inhibition of virus-induced cytopathic effect incubated for 48 hrs by CellTiter-Glo assay; type: functional, organism-based
[15] = Cytotoxicity against MDCK cells assessed as reduction in cell viability incubated for 48 hrs by CellTiter-Glo assay; type: toxicity, cell-based, Canis lupus familiaris; conditions: dog

CC(=O)N(CCS[C@@H]1O[C@H](C(=O)O)[C@@H](O)[C@H](O)[C@H]1O)[C@H]1CC[C@]2(C)[C@H]3C(=O)C=C4[C@@H]5C[C@@](C)(C(=O)O)CC[C@]5(C)CC[C@@]4(C)[C@]3(C)CC[C@H]2C1(C)C
CC50 at 48 h [1]: > 250 µg/mL
IC50 [2]: 87 µg/mL (≈ 116 µM)

COC(=O)C(Cc1c[nH]c2ccccc12)NC(=O)[C@H]1O[C@@H](O[C@H]2[C@H](O[C@H]3CC[C@]4(C)[C@H]5C(=O)C=C6[C@@H]7C[C@@](C)(C(=O)NC(Cc8c[nH]c9ccccc89)C(=O)OC)CC[C@]7(C)CC[C@@]6(C)[C@]5(C)CC[C@H]4C3(C)C)O[C@H](C(=O)NC(Cc3c[nH]c4ccccc34)C(=O)OC)[C@@H](O)[C@@H]2O)[C@H](O)[C@@H](O)[C@@H]1O (stereo partly drawn)
EC50 [3]: 74.4 µg/mL (≈ 52.3 µM)
EC50 [4]: 20.7 µg/mL (≈ 14.5 µM)
CC50 at 72 h [5]: 620 µg/mL (≈ 435 µM)

CCOC(=O)C(Cc1c[nH]c2ccccc12)NC(=O)[C@H]1O[C@@H](O[C@H]2[C@H](O[C@H]3CC[C@]4(C)[C@H]5C(=O)C=C6[C@@H]7C[C@@](C)(C(=O)NC(Cc8c[nH]c9ccccc89)C(=O)OCC)CC[C@]7(C)CC[C@@]6(C)[C@]5(C)CC[C@H]4C3(C)C)O[C@H](C(=O)NC(Cc3c[nH]c4ccccc34)C(=O)OCC)[C@@H](O)[C@@H]2O)[C@H](O)[C@@H](O)[C@@H]1O (stereo partly drawn)
EC50 [6]: 17.5 µg/mL (≈ 11.9 µM)
EC50 [7]: 50 µg/mL (≈ 34.1 µM)
EC50 [3]: 33 µg/mL (≈ 22.5 µM)
EC50 [4]: 44.5 µg/mL (≈ 30.4 µM)
CC50 at 72 h [5]: > 500 µg/mL

CC1(C)[C@@H](O)CC[C@]2(C)[C@H]3C(=O)C=C4[C@@H]5C[C@@](C)(C(=O)O)CC[C@]5(C)CC[C@@]4(C)[C@]3(C)CC[C@@H]12 [ENOXOLONE]
solubility [8]: < 10 µg/mL
CC50 at 48 h [1]: 7.4 µg/mL (≈ 15.7 µM)

O=c1cc(-c2ccccc2)oc2cc(O)c(O)c(O)c12 [BAICALEIN]
bioavailability [9]: 2.2%
solubility [10]: 0.15 µg/mL (≈ 0.555 µM)

COC(=O)CCCCCNC(=O)[C@H]1O[C@@H](O[C@H]2[C@H](O[C@H]3CC[C@]4(C)[C@H]5C(=O)C=C6[C@@H]7C[C@@](C)(C(=O)O)CC[C@]7(C)CC[C@@]6(C)[C@]5(C)CC[C@H]4C3(C)C)O[C@H](C(=O)NCCCCCC(=O)OC)[C@@H](O)[C@@H]2O)[C@H](O)[C@@H](O)[C@@H]1O
EC50 [11]: 12.7 µg/mL (≈ 11.8 µM)
CC50 at 48 h [12]: 408 µg/mL (≈ 379 µM)

COC(=O)[C@H]1O[C@@H](SCCN(C(C)=O)[C@H]2CC[C@]3(C)[C@H]4C(=O)C=C5[C@@H]6C[C@@](C)(C(=O)O)CC[C@]6(C)CC[C@@]5(C)[C@]4(C)CC[C@H]3C2(C)C)[C@H](O)[C@@H](O)[C@@H]1O
CC50 at 48 h [1]: > 75 µg/mL
IC50 [2]: 72.1 µg/mL (≈ 94.6 µM)

CC1(C)[C@@H](SCCS[C@@H]2O[C@H](C(=O)O)[C@@H](O)[C@H](O)[C@H]2O)CC[C@]2(C)[C@H]3C(=O)C=C4[C@@H]5C[C@@](C)(C(=O)O)CC[C@]5(C)CC[C@@]4(C)[C@]3(C)CC[C@@H]12
CC50 at 48 h [1]: > 250 µg/mL
IC50 [2]: 54 µg/mL (≈ 74.7 µM)

COC(=O)[C@@]1(C)CC[C@]2(C)CC[C@]3(C)[C@H](C(=O)C=C4[C@@]5(C)C=C(C#N)C(=O)C(C)(C)[C@@H]5CC[C@]43C)[C@@H]2C1
log(activity) [13]: 2.3

CC(=O)O[C@@H]1[C@@H](OC(C)=O)[C@H]2O[C@H]3[C@H](OC(C)=O)[C@@H](OC(C)=O)[C@@H](O[C@H]4[C@H](OC(C)=O)[C@@H](OC(C)=O)[C@@H](O[C@H]5[C@H](OC(C)=O)[C@@H](OC(C)=O)[C@@H](O[C@H]6[C@H](OC(C)=O)[C@@H](OC(C)=O)[C@@H](O[C@H]7[C@H](OC(C)=O)[C@@H](OC(C)=O)[C@@H](O[C@H]8[C@H](OC(C)=O)[C@@H](OC(C)=O)[C@@H](O[C@@H]1[C@@H](Cn1cc(CN9CCN(CCNC(=O)[C@@]%10(C)CC[C@]%11(C)CC[C@]%12(C)C(=CC(=O)[C@@H]%13[C@@]%14(C)CC[C@H](O)C(C)(C)[C@@H]%14CC[C@]%13%12C)[C@@H]%11C%10)CC9)nn1)O2)O[C@@H]8Cn1cc(CN2CCN(CCNC(=O)[C@@]8(C)CC[C@]9(C)CC[C@]%10(C)C(=CC(=O)[C@@H]%11[C@@]%12(C)CC[C@H](O)C(C)(C)[C@@H]%12CC[C@]%11%10C)[C@@H]9C8)CC2)nn1)O[C@@H]7Cn1cc(CN2CCN(CCNC(=O)[C@@]7(C)CC[C@]8(C)CC[C@]9(C)C(=CC(=O)[C@@H]%10[C@@]%11(C)CC[C@H](O)C(C)(C)[C@@H]%11CC[C@]%109C)[C@@H]8C7)CC2)nn1)O[C@@H]6Cn1cc(CN2CCN(CCNC(=O)[C@@]6(C)CC[C@]7(C)CC[C@]8(C)C(=CC(=O)[C@@H]9[C@@]%10(C)CC[C@H](O)C(C)(C)[C@@H]%10CC[C@]98C)[C@@H]7C6)CC2)nn1)O[C@@H]5Cn1cc(CN2CCN(CCNC(=O)[C@@]5(C)CC[C@]6(C)CC[C@]7(C)C(=CC(=O)[C@@H]8[C@@]9(C)CC[C@H](O)C(C)(C)[C@@H]9CC[C@]87C)[C@@H]6C5)CC2)nn1)O[C@@H]4Cn1cc(CN2CCN(CCNC(=O)[C@@]4(C)CC[C@]5(C)CC[C@]6(C)C(=CC(=O)[C@@H]7[C@@]8(C)CC[C@H](O)C(C)(C)[C@@H]8CC[C@]76C)[C@@H]5C4)CC2)nn1)O[C@@H]3Cn1cc(CN2CCN(CCNC(=O)[C@@]3(C)CC[C@]4(C)CC[C@]5(C)C(=CC(=O)[C@@H]6[C@@]7(C)CC[C@H](O)C(C)(C)[C@@H]7CC[C@]65C)[C@@H]4C3)CC2)nn1
IC50 [14]: 2.86 µM
CC50 at 48 h [15]: > 100 µM
